This is an account of results in PMC5799093, “Proceedings of Réanimation 2018, the French Intensive Care Society International Congress” (Annals of Intensive Care, 2018).

Data set [1] is described as follows: Population pharmacokinetics of cefotaxime and desacetylcefotaxime in critically ill children (P-168). The data set is classed as in vivo, human (children). The protocol: Patients and methods: All children aged less than 18 years, weighing more than 2.5 kg, and receiving intermittent CTX infusions were included. CTX and D-CTX were quantified by high performance liquid chromatography. Pharmacokinetics were described using the non-linear mixed effect modelling software MONOLIX. Monte Carlo simulations were used to optimize dosing regimen, in order to maintain serum concentration above the target concentration (defined at 2 mg L^−1) 100% of the time during the dosing interval.

Data set [2] deals with Extended spectrum betalactamase producing Enterobacteriaceae. Briefly: Antibiotic resistance of ESBL producing Enterobacteriaceae (P-147). In kind it is cell-based. The note with it: isolates 2015 and 2016.
Data set [3] deals with Enterococcus faecalis. Briefly: Resistance in nosocomial urinary tract infection: Enterococcus faecalis (P-219). The note with it: January 2010 - June 2014.
In data set [4] the test system is Klebsiella pneumoniae.
Data set [5] relates to Pseudomonas aeruginosa.
The test system of data set [6] is Pseudomonas. Conditions: January 2010 - June 2014.
Data set [7] has as its system Acinetobacter baumannii. The data set is classed as cell-based. The note with it: blood culture isolates 2012–2016. The protocol:
(§1) Patients and methods: From January 2012 to December 2016, a total of 2,182 non repetitive strains were isolated from blood cultures. Incubation of blood culture vials and the detection of bacterial growth were performed by the BACTEC system. All Isolated organisms were identified on the basis of standard microbiological techniques. Antibiotic susceptibility testing was carried out by the agar disk diffusion method, and susceptibility results were interpreted using clinical breakpoints according to CA-SFM 2013 and 2015 guidelines. Data were analyzed using the SIR-system. Minimum inhibitory concentrations of colistin, imipenem and vancomycin were determined using the Etest® method (bioMérieux).

Data set [8] in a line: Beta-lactam plasma concentrations in children with severe sepsis or septic shock (HPLC). Conditions: current standard dosing.
For data set [9], the system named is tramadol-overdosed rats. The data set can be described thus: Antidotes for tramadol overdose: seizures, plethysmography, sedation, EEG. The note with it: for tramadol-induced respiratory depression / ventilation: whole-body plethysmography.
For data set [10], the system named is Escherichia-coli. Briefly: Resistance in nosocomial urinary tract infection: Escherichia-coli (P-219). The note with it: January 2010 - June 2014.
For data set [11], the system named is carbapenemase-producing Enterobacteriaceae. Briefly: Antibiotic susceptibility of Enterobacteriaceae with decreased susceptibility to carbapenems. The data set is classed as cell-based.
In data set [12] the test system is Staphylococcus aureus. In kind it is cell-based. The note with it: blood culture isolates 2012–2016. The protocol:
as §1

Data set [13] relates to cardiogenic shock patients. The data set can be described thus: OPTIMA CC double-blind randomized trial, epinephrine vs norepinephrine in cardiogenic shock after myocardial infarction. The data set is classed as in vivo. From the text: Patients and methods: Multicenter, double-blind, randomized trial in 8 french ICU. Cardiogenic shock patients due to myocardial infarction treated by PCI were randomized to receive epinephrine or norepinephrine to maintain MAP at 70 mmHg. Dobutamine was introduced at the physician discretion according to a combination of parameters—echocardiographic parameters, cardiac index, lactate clearance, SVO2 and Swan-Ganz derived parameters.

Data set [14] can be described thus: Norepinephrine in pediatric septic shock, mortality (P-169). The data set is classed as in vivo, human (children).
In data set [15] the test system is E.coli lipopolysaccharide-challenged rats. The data set can be described thus: Sodium lactate vs 0.9% NaCl in rat endotoxin shock: fluid balance and capillary leak. In kind it is in vivo. How it is done:
Patients and methods: The sixteen sedated, mechanically ventilated rats were challenged with intravenous infusion of E.coli lipopolysaccharide (10 mg/kg). Two groups of eight animals were randomised to receive a continous perfusion (5 mL/kg/h) of sodium lactate 11.2% (treatment group) or 0.9% NaCl (control group). In order to inject the same caloric load in the two groups, a 4.35 mL/kg/h of either water of 10% dextrose solution were perfused. Mean arterial pressure, heart rate, urine ouput were measured over a 210 min period. An echocardiography was then performed and Evans Blue (1%, 30 mg/kg) was intravenously injected 30 min before sacrifice. Organs were withdrawn and organs wet dry ratio and Evans blue dye extravasation were measured.

The nature of data set [16]: Hemodynamic and metabolic effects of molar sodium lactate infusion in critically ill patients (P-135). In kind it is in vivo, human. How it is done: Patients and methods: This was a retrospective study performed in a large University Hospital. All patients receiving the molecule were included in the analysis. Indication for sodium lactate, dose, and modality of administration were collected. We also collected clinical and biological variables before sodium lactate infusion, after 6 h (H6), and after 24 h (H24). An analysis of the evolution of these variables at H6 and H24 was performed.

Data set [17] deals with Acinetobacter Baumanii. The data set can be described thus: Resistance of nosocomial infection isolates: Acinetobacter Baumanii (P-222). In kind it is cell-based. The note with it: n = 39 isolates, 2016. The source says: Patients and methods: This was a retrospective study conducted within a 22-bed medical ICU of a Tunisian teaching hospital (301 beds) carried from January 1st to December 31, 2016. We recorded demographic patients’ characteristics which ICU’s stay was complicated with at least one NI. Then we described pathogens and microbiological specificities of NI.

In data set [18] the test system is Staphylococcus aureus. Briefly: Resistance in nosocomial urinary tract infection: Staphylococcus aureus (P-219). Conditions: January 2010 - June 2014.
Assay in data set [19]: not given
The source holds these as a separate data set.

Data set [20] has as its system patients after out-of-hospital cardiac arrest.
Data set [21] concerns diaphragm contraction and workload. Briefly: Diaphragmatic electromyography after diazepam / buprenorphine. Conditions: 30 mg kg BUP intraperitoneally, 20 mg kg DZP subcutaneously. In kind it is in vivo, Sprague–Dawley rat.
Description: Patients and methods: 11C-BUP was administered intravenously, 30 mg kg unlabeled BUP intraperitoneally and 20 mg kg DZP subcutaneously.
Data set [22] has as its system Farnesoid X receptor (FXR). The data set can be described thus: LPS sepsis in CKD mice treated with sevelamer (P-138). In kind it is in vivo, mice (C57BL6 J). How it is done:
Patients and methods: Sepsis was provoked by the injection of 0.5 mg kg of LPS 6 weeks after the creation of CKD. The CKD was created by unilateral nephrectomy associated with contralateral thermocauterisation. The mice (C57BL6 J) were randomly assigned to one of the following groups—sham placebo, CKD placebo, sham LPS or CKD LPS. A fifth group of CKD LPS mice received a treatment with sevelamer (a bile acid sequestrant) during 6 weeks. Survival of the animals, serum biochemistry and molecular biology in the kidney were performed after sacrifice.

Setting [23] is: median (range), 49 children, one compartment model.

`CO/N=C(\C(=O)N[C@@H]1C(=O)N2C(C(=O)O)=C(COC(C)=O)CS[C@H]12)c1csc(N)n1` [CTX, cefotaxime]: the “target attainment of calculated residual concentrations” value in data set [1] (intermittent infusions, target 2 mg L^−1) is “no patient succeeds to attain the target”. Moreover, the volume of distribution in [1] (setting [23]) is listed as 3.3 (0.85–20) L. In addition, the CTX clearance in [1] (median (range), 49 children, one compartment model, MONOLIX, HPLC) is recorded as 0.97 (0.3–7.1) L h^−1.
Turning to `CO/N=C(\C(=O)N[C@@H]1C(=O)N2C(C(=O)O)=C(CO)CS[C@H]12)c1csc(N)n1` [D-CTX, desacetylcefotaxime], the D-CTX clearance in data set [1] (setting [23]) is given as 3.2 (0.6–16.3) L h^−1.
In data set [2], `CCn1cc(C(=O)O)c(=O)c2cc(F)c(N3CCNCC3)cc21` [Norfloxacin] displayed a rate of resistance of 89.13%.
For `CC1(C)S[C@@H]2[C@H](NC(=O)[C@H](N)c3ccccc3)C(=O)N2[C@H]1C(=O)O` [ampicillin], the resistance result in data set [3] was “no resistance”.
As for `CC(C)(O/N=C(\C(=O)N[C@@H]1C(=O)N2C(C(=O)[O-])=C(C[n+]3ccccc3)CS[C@H]12)c1csc(N)n1)C(=O)O` [ceftazidime], the results for the resistance rate in data set [4], in data set [5] and in data set [7] were 70%, 39% and “Eighty per cent”, respectively. Further, the resistant in data set [6] amounted to 61%. The “patients with insufficient plasma concentration” value in [8] is given as 0%.
For `CN1C(=O)CN=C(c2ccccc2)c2cc(Cl)ccc21` [diazepam], in data set [9] (rat, in vivo), the sedation depth result is given as “significantly deepened rat sedation”. In addition, the “tramadol-induced respiratory depression / ventilation” value in data set [9] was “without improving ventilation”.
As to `C[C@@H](O)[C@H]1C(=O)N2C(C(=O)O)=C(S[C@@H]3CN[C@H](C(=O)Nc4cccc(C(=O)O)c4)C3)[C@H](C)[C@H]12` [ertapenem], the resistance result in data set [10] is listed as “without resistance”. The “strains with MIC > 1 mg l” value in data set [11] (39 selected bacteria) turned out to be 95%.
Consider `CC(=O)NC[C@H]1CN(c2ccc(N3CCOCC3)c(F)c2)C(=O)O1` [linezolid], for which the resistance rate in [12] was determined as 1%.
Consider `C=CCN1CC[C@]23c4c5ccc(O)c4O[C@H]2C(=O)CC[C@@]3(O)[C@H]1C5` [naloxone], for which the “tramadol-induced respiratory depression / ventilation” value in data set [9] was “reversed tramadol-induced respiratory depression”.
As to `NC[C@H](O)c1ccc(O)c(O)c1` [norepinephrine], the “arterial pH and lactate” value in data set [13] (H2 to H24) is “arterial pH increased and lactate level decreased”. In [13] (in vivo), the ECMO use came to 3%, the “cardiac double product (surrogate of myocardial oxygen consumption)” value is listed as “did not change”, the heart rate evolution entry is listed as “did not change” and the incidence of arrhythmia is 33%. Moreover, in data set [13] (in vivo), the mortality is given as 37%. Besides, the “incidence of refractory shock” value in [13] (titrated to MAP 70 mmHg, epinephrine n = 27, norepinephrine n = 30) amounted to 7%. Besides, the “OR of maximal dose for mortality” value in data set [14] (95% confidence interval 1.1–2.0, p = 0.02) was 1.4. This compound also came in with a global mortality rate in data set [14] (191 children with septic shock treated with norepinephrine) of 28.8%. Moreover, the “mortality rate in preterm neonates” value in data set [14] (in vivo) is reported as 35.3%. The compound also gave a mortality in data set [14] (when dose reached 0.75 µg kg per minute) of 46.2%.
With `CC(O)C(=O)[O-].[Na+]` (stereo not drawn) [sodium lactate], in [15] (after sodium lactate infusion), the hemodynamics parameters result was “not significantly enhanced”. Also, the “fluid balance, organs wet dry ratio and Evans blue dye extravasation” value in data set [15] (sodium lactate 11.2% 5 mL/kg/h vs 0.9% NaCl, LPS 10 mg/kg, 210 min) is on record as “not significantly improved”. The diuresis entry in data set [16] (6 h period following initiation, p = 0.02) is recorded as “increase”. Besides, in data set [16] (at H6 (p = 0.009) and H24 (p = 0.003), 250 ml infusion, 104 patients), the mean arterial pressure result is recorded as “significant increase”. Further, in data set [16] (at H6 and H24, all p < 0.0001), the “pH, bicarbonate, base excess, and sodium” value is “increase”. In [16] (at H24), the “patients with plasma sodium >= 150 mmol l and pH >= 7.50” value came to 5%. The catecholamine dose entry in [16] (at H24, p = 0.002) was “decrease”. In data set [16] (at H24, p = 0.05), the heart rate entry is given as “decrease”.
In turn, `CN(C)c1cc(NC(=O)CNC(C)(C)C)c(O)c2c1C[C@H]1C[C@H]3[C@H](N(C)C)C(O)=C(C(N)=O)C(=O)[C@@]3(O)C(O)=C1C2=O` [tigecycline] showed a resistance rate in data set [12] of 15%. This compound showed a susceptibility in data set [11] (colistin excepting with Proteus) of 63%.
For the compound `CN(C)c1cc(NC(=O)CNC(C)(C)C)c(O)c2c1C[C@H]1C[C@H]3[C@H](N(C)C)C(=O)C(C(N)=O)=C(O)[C@@]3(O)C(=O)C1=C2O` [tygecycline], in data set [17], the resistance is listed as 100%.
In the case of `CN[C@H](CC(C)C)C(=O)N[C@H]1C(=O)N[C@@H](CC(N)=O)C(=O)N[C@H]2C(=O)N[C@H]3C(=O)N[C@H](C(=O)N[C@H](C(=O)O)c4cc(O)cc(O)c4-c4cc3ccc4O)[C@H](O)c3ccc(c(Cl)c3)Oc3cc2cc(c3O[C@@H]2O[C@H](CO)[C@@H](O)[C@H](O)[C@H]2O[C@H]2C[C@](C)(N)[C@H](O)[C@H](C)O2)Oc2ccc(cc2Cl)[C@H]1O` [vancomycin], the resistance result in [18] is “without any resistance”; in data set [3], “no resistance”.
With Amoxicillin clavulanic acid [AMC], the efficiency (community-acquired peritonitis) is given as 77%. Moreover, for the setting “in vivo”, the “impact when AMC was inadequate” value was “no impact on morbidity and mortality”.
In the case of Cyclosporine A [CsA], the “IL-1, IL-6, IL-8 and TNFα levels versus Control group” value in [19] (D0 and D1, p = ns) was “did not significantly differ”. Besides, in [19] (p < 0.05), the “level of IL 10 at admission versus Control group” value was “significantly lower”.
On to amoxicillin-clavulanic acid, for which, in data set [20] (IC 95% [0.315 + 0.946], p = 0.031), the “HR for early VAP vs placebo” value is recorded as 0.546. Moreover, the “incidence of early VAP (< 7 days)” value in data set [20] (IV 1 g 200 mg three times a day for 2 days, n = 99) amounted to 19.2%. For the same compound, in data set [20] (n = 99), the “Day 28 mortality” value is 41.4% and the “late VAP (> 7 days), number of patients” value worked out at 4.
For buprenorphine, in data set [21], the “diaphragm contraction (first 60 min AUC)” value is on record as “significantly increased” and the “diaphragm workload (first 60 min AUC)” value was “significantly increased”.
sevelamer: in [22] (sevelamer 6 weeks before LPS), the “RNA expression of FXR in the kidney versus CKD LPS group” value was “increased the RNA expression of FXR” and the “plasmatic concentration of Il1b, TNFa versus CKD LPS group” value is given as “lower plasmatic concentration”. Moreover, in [22] (sevelamer 6 weeks before LPS 0.5 mg kg), the “survival of CKD LPS animals” value is reported as “improved the survival”.
